Test results: US9884063B2, “Amido-substituted azole compounds” (Bayer Pharma Aktiengesellschaft, priority 2014, dated 2018)
pIC50: −log10 of the molar value.

Key:
[1] = biological target: T1, TNKS2 (Homo sapiens, UniProt Q9H2K2); experiment: Modified TNKS2 Assay 3 (BPS kit #80578, biotin-NAD+, 96 well); assay type: biochemical; conditions: human TNKS2, BPS kit #80578, 96 well
T1 sequence (Q9H2K2 1-1166): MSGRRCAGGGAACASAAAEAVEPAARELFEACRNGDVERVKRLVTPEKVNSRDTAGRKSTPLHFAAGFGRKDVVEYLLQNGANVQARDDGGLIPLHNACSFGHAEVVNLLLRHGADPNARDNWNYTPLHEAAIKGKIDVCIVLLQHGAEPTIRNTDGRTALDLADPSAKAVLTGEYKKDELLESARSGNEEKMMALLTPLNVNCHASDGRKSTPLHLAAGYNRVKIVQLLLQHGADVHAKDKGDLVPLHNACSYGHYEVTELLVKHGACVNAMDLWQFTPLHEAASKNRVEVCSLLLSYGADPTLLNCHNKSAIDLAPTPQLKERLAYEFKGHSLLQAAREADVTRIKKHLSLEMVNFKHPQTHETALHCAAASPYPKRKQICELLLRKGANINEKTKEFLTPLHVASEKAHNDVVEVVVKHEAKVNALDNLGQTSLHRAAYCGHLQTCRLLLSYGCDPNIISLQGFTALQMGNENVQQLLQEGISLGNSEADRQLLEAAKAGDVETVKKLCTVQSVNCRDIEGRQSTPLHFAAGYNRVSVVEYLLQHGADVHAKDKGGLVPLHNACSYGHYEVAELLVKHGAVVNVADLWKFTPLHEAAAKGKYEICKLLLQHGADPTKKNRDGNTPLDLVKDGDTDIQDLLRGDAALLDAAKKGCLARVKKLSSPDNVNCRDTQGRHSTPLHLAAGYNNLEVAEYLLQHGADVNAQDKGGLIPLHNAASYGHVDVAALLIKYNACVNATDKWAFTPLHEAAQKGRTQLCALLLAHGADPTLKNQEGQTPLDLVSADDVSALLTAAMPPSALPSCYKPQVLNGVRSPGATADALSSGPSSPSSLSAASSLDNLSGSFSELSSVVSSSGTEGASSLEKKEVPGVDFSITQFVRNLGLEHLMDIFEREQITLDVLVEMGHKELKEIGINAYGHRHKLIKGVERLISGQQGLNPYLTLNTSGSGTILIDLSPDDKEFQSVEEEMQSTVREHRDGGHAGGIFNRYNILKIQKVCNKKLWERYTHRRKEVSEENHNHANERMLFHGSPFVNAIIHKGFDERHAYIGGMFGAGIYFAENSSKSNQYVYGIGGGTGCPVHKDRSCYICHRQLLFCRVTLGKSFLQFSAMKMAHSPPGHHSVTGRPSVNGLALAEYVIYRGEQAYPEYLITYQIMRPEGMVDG
Description: (§1) The potency of the compounds against human TNKS2 according to the invention was assessed using a commercially available biotin/streptavidin binding assay kits from BPS Bioscience, San Diego, USA (Catalog #80578 for TNKS2). The incorporation of a biotin-labeled NAD+ during the […] catalyzed ribosylation of a suitable protein substrate was detected using with a streptavidin-HRP coupled chemi-luminescent readout. The intensity of the readout signal is proportional to the incorporated NAD^+. Inhibition of TNKS2 leads to a decreased incorporation of NAD^+ and consequently to a lower readout signal intensity in the corresponding TNKS2 assays. The concentration of a test compound that inhibits the enzyme activity by 50% (corresponds to half of the normed readout signal intensity) is reported as IC50. The assay conducted in a 96 well MTP format according to the manufacturer's protocol and using a BMG Pherastar MTP reader [BMG-Labtech, Offenburg, Germany].

[2] = tested on: wildtype Wnt signaling cascade; experiment: HEK293 TOP Assay (Super TopFlash luciferase reporter, Wnt-3a stimulated); assay type: cell-based; conditions: Homo sapiens, HEK293, 16 h, HEK293 TOP reporter cell line, Wnt-3a at EC50, 16 hours incubation, compound dilution series 50 μM to 15 nM
Method in brief: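 Compounds (50 μM down to 15 nM, 3.16-fold steps, in CAFTY buffer pH 7.4, 2 mM Ca2+, 0.01% BSA) tested in parallel on TOP and FOP HEK293 reporter lines to define selective wildtype Wnt inhibition. Pathway driven by recombinant human Wnt-3a applied at 2500–5 ng/ml in two-fold dilutions.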

[3] = tested on: HEK293 FOP control reporter cell line; experiment: HEK293 FOP Assay (FOP control vector luciferase reporter); assay type: cell-based; conditions: Homo sapiens; HEK293 FOP control reporter cell line, 16 hours incubation, compound dilution series 50 μM to 15 nM
Method in brief: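 Compound series 50 μM to 15 nM, 3.16-fold steps, were diluted in CAFTY buffer (pH 7.4, 2 mM Ca2+, 0.01% BSA) and tested alongside the TOP reporter line. Human Wnt-3a was added at 2500–5 ng/ml in two-fold steps. The control HEK293 line stably holds an FOP vector whose TCF elements are randomized and non-functional.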

[4] = biological target: T2, TNKS1 (Homo sapiens, UniProt O95271); experiment: Modified TNKS1 Assay 3 (BPS kit #80573, biotin-NAD+, 96 well); assay type: biochemical; conditions: human TNKS1, BPS kit #80573, 96 well
T2 sequence (O95271 1-1327): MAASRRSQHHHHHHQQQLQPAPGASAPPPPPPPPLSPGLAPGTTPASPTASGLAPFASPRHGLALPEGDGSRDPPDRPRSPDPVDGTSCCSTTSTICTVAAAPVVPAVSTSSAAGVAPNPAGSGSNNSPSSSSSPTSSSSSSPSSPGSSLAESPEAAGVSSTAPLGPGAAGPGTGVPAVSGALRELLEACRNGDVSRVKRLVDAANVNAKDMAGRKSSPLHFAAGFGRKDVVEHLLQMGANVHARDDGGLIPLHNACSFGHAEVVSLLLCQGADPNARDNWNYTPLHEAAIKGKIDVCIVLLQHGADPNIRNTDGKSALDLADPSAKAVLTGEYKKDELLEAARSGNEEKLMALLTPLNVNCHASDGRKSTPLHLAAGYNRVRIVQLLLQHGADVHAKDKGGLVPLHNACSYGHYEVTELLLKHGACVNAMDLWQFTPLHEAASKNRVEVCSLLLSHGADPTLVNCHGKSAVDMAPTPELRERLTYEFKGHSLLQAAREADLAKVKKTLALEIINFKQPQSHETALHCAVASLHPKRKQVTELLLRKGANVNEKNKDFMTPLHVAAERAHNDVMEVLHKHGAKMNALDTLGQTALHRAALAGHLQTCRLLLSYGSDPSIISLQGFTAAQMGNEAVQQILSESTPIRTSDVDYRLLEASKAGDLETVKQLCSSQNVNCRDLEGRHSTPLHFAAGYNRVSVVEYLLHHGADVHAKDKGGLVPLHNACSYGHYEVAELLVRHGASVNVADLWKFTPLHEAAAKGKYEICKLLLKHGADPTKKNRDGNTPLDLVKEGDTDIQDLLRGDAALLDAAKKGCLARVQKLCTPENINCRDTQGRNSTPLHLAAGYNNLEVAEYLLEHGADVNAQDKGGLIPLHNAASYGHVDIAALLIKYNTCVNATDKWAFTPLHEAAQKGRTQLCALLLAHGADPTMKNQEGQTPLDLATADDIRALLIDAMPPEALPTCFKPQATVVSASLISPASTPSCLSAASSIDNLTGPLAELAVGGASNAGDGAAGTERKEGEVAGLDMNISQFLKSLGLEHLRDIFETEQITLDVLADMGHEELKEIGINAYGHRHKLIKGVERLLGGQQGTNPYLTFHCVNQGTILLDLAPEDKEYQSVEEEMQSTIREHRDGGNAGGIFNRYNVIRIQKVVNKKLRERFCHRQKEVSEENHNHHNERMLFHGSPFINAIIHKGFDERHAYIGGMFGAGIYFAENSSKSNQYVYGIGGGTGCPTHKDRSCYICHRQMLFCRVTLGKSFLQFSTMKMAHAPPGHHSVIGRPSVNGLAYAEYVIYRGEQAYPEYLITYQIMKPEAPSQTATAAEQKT
Description: as §1, with “against human TNKS1 according to” for “against human TNKS2 according to”, “USA (Catalog #80573 for TNKS1).” for “USA (Catalog #80578 for TNKS2).”, “#80573 for TNKS1). The incorporation” for “#80578 for TNKS2). The incorporation”, “Inhibition of TNKS1 leads to” for “Inhibition of TNKS2 leads to”, “the corresponding TNKS1 assays. The” for “the corresponding TNKS2 assays. The”, “The assay was conducted in” for “The assay conducted in”

Structure (SMILES) | pIC50 [1] | pIC50 [2] | pIC50 [3] | pIC50 [4]
CNC(=O)c1nc[nH]c1C(=O)Nc1ccc(NC(=O)c2ccc(F)cc2Cl)c(F)c1 [Example 72, N^5-{4-[(2-chloro-4-fluorobenzoyl)amino]-3-fluorophenyl}-N^4-methyl-1H-imidazole-4,5-dicarboxamide] | 7.22 | 6.31 | – | –
CC(C)(CNC(=O)c1[nH]cnc1C(=O)Nc1ccc(NC(=O)c2ccc(F)cc2Cl)cc1)N1CCCCC1 [Example 159, N^4-{4-[(2-chloro-4-fluorobenzoyl)amino]phenyl}-N^5-[2-methyl-2-(piperidin-1-yl)propyl]-1H-imidazole-4,5-dicarboxamide] | 8.70 | 7.05 | – | –
O=C(Nc1ccc(NC(=O)c2nc[nH]c2C(=O)NCCCN2CCCCC2)cc1)c1ccc(F)cc1Cl [Example 297, N^4-{4-[(2-chloro-4-fluorobenzoyl)amino]phenyl}-N^5-[3-(piperidin-1-yl)propyl]-1H-imidazole-4,5-dicarboxamide] | – | 5.98 | 4.65 | < 6.30
CN(C)CCCCCNC(=O)c1nc[nH]c1C(=O)Nc1ccc(NC(=O)c2ccc(F)cc2Cl)cc1 [Example 378, N^5-{4-[(2-chloro-4-fluorobenzoyl)amino]phenyl}-N^4-[5-(dimethylamino)pentyl]-1H-imidazole-4,5-dicarboxamide] | – | 6.64 | 4.57 | 7.22
CC1CCCCN1CCCNC(=O)c1nc[nH]c1C(=O)Nc1ccc(NC(=O)c2ccc(F)cc2Cl)cc1 (stereo not shown) [Example 386, N^5-{4-[(2-chloro-4-fluorobenzoyl)amino]phenyl}-N^4-[3-(2-methylpiperidin-1-yl)propyl]-1H-imidazole-4,5-dicarboxamide] | – | 6.34 | 4.82 | 7.22
CCN(CC)CCCNC(=O)c1nc[nH]c1C(=O)Nc1ccc(NC(=O)c2ccc(F)cc2Cl)cc1 [Example 388, N^5-{4-[(2-chloro-4-fluorobenzoyl)amino]phenyl}-N^4-[3-(diethylamino)propyl]-1H-imidazole-4,5-dicarboxamide] | – | 6.36 | 4.77 | 7.52
CN(C)CC(C)(C)CNC(=O)c1nc[nH]c1C(=O)Nc1ccc(NC(=O)c2ccc(F)cc2Cl)cc1 [Example 396, N^5-{4-[(2-chloro-4-fluorobenzoyl)amino]phenyl}-N^4-[3-(dimethylamino)-2,2-dimethylpropyl]-1H-imidazole-4,5-dicarboxamide] | – | 6.47 | 4.60 | 6.74
CC1CCCC(C)N1CCNC(=O)c1nc[nH]c1C(=O)Nc1ccc(NC(=O)c2ccc(F)cc2Cl)cc1 (stereo not shown) [Example 401, N^5-{4-[(2-chloro-4-fluorobenzoyl)amino]phenyl}-N^4-[2-(2,6-dimethylpiperidin-1-yl)ethyl]-1H-imidazole-4,5-dicarboxamide] | – | 6.48 | 4.68 | 6.74
O=C(Nc1ccc(NC(=O)c2[nH]cnc2C(=O)NCCCCCN2CCCC2)cc1)c1ccc(F)cc1Cl [Example 406, N^5-{4-[(2-chloro-4-fluorobenzoyl)amino]phenyl}-N^4-[5-(pyrrolidin-1-yl)pentyl]-1H-imidazole-4,5-dicarboxamide] | – | 6.46 | 4.59 | 7.15
CCN1CCC(CNC(=O)c2nc[nH]c2C(=O)Nc2ccc(NC(=O)c3ccc(F)cc3Cl)cc2)CC1 [Example 409, N^5-{4-[(2-chloro-4-fluorobenzoyl)amino]phenyl}-N^4-[(1-ethylpiperidin-4-yl)methyl]-1H-imidazole-4,5-dicarboxamide] | – | 6.72 | 4.49 | 7.10
CN1CCCCC1CNC(=O)c1nc[nH]c1C(=O)Nc1ccc(NC(=O)c2ccc(F)cc2Cl)cc1 (stereo not shown) [Example 410, N^5-{4-[(2-chloro-4-fluorobenzoyl)amino]phenyl}-N^4-[(1-methylpiperidin-2-yl)methyl]-1H-imidazole-4,5-dicarboxamide] | – | 6.96 | 4.74 | 7.05
CN1CCC(NC(=O)c2nc[nH]c2C(=O)Nc2ccc(NC(=O)c3ccc(F)cc3Cl)cc2)CC1 [Example 414, N^5-{4-[(2-chloro-4-fluorobenzoyl)amino]phenyl}-N^4-(1-methylpiperidin-4-yl)-1H-imidazole-4,5-dicarboxamide] | – | 6.57 | 4.48 | 7.30
